Assay results: paper PMC10746543, “Design principles for cyclin K molecular glue degraders” (Nature Chemical Biology, 2023)
“And” between values parts separate entries of the source, which are not always exact repeats. Identical values can stand only once. Like-named read-outs stand apart in the source and are kept apart here.

Legend:
HEK293T cells = experiment: Drug sensitivity assay (CellTiter-Glo viability) with or without MLN4924 pretreatment; type: cell-based, human; details: for EC50: Homo sapiens, HEK-293T
Method in brief: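 First, cells (HEK293T–Cas9, 0.15 × 10^6 ml^−1) are exposed to DMSO or 100 nM MLN4924. Next, drugs follow at 2 h. Finally, CellTiter-Glo is read at day 3 and normalised to DMSO.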

CDK12–cyclin K = CDK12–cyclin K (Homo sapiens, UniProt Q9NYV4); experiment: Lanthascreen kinase binding assay, CDK12; details: duplicates
Protocol: Lanthascreen experiments were performed using commercially available reagents (Thermo Fisher) and according to the manufacturer’s instructions.

cyclin K = experiment: Label-free quantitative mass spectrometry in MDA-MB-231 cells, cyclin K; type: cell-based, human
Protocol: (§1) MDA-MB-231 cells were treated with DMSO or a cyclin K degrader compound at 1 µM for 5 h. Cells were collected by centrifugation and washed with phosphate-buffered saline before snap freezing in liquid nitrogen. Cells were lysed by addition of lysis buffer (8 M urea, 50 mM NaCl, 50 mM 4-(2-hydroxyethyl)-1-piperazineethanesulfonic acid (EPPS) pH 8.5, and protease and phosphatase inhibitors) and homogenization by bead beating (BioSpec) for three repeats of 30 s at 2,400 rpm. Bradford assay was used to determine the final protein concentration in the clarified cell lysate. Then 50 µg of protein for each sample was reduced, alkylated and precipitated using methanol/chloroform as previously described, and the resulting washed precipitated protein was allowed to air dry. Precipitated protein was resuspended in 4 M urea, 50 mM HEPES pH 7.4, followed by dilution to 1 M urea with the addition of 200 mM EPPS, pH 8. Proteins were first digested with LysC (1:50; enzyme:protein) for 12 h at room temperature. The LysC digestion was diluted to 0.5 M urea with 200 mM EPPS pH 8 followed by digestion with trypsin (1:50; enzyme:protein) for 6 h at 37 °C. Sample digests were acidified with formic acid to a pH of 2–3 before desalting using C18 solid phase extraction plates (SOLA, Thermo Fisher Scientific). Desalted peptides were dried in a vacuum-centrifuged and reconstituted in 0.1% formic acid for liquid chromatography–mass spectrometry analysis.
(§2) Data were collected using a TimsTOF Pro2 (Bruker Daltonics) coupled to a nanoElute LC pump (Bruker Daltonics) via a CaptiveSpray nano-electrospray source. Peptides were separated on a reversed-phase C18 column (25 cm × 75 µm inner diameter, […], IonOpticks) containing an integrated captive spray emitter. Peptides were separated using a 50 min gradient of 2–30% buffer B (acetonitrile in 0.1% formic acid) with a flow rate of 250 nl min^−1 and column temperature maintained at 50 °C.
(§3) Data-dependent acquisition (DDA) was performed in Parallel Accumulation-Serial Fragmentation (PASEF) mode to determine effective ion mobility windows for downstream diaPASEF data collection. The ddaPASEF parameters included: 100% duty cycle using accumulation and ramp times of 50 ms each, one Trapped Ion Mobility Spectrometry(TIMS)-MS scan and ten PASEF ramps per acquisition cycle. The TIMS-MS survey scan was acquired between 100 m/z and 1,700 m/z and 1/K0 of 0.7–1.3 V s cm^−2. Precursors with one to five charges were selected, and those that reached an intensity threshold of 20,000 arbitrary units were actively excluded for 0.4 min. The quadrupole isolation width was set to 2 m/z for m/z < 700 and 3 m/z for m/z > 800, with the m/z between 700 m/z and 800 m/z being interpolated linearly. […] To perform diaPASEF, the precursor distribution in the DDA m/z-ion mobility plane was used to design an acquisition scheme for data-independent acquisition (DIA) data collection that included two windows in each 50 ms diaPASEF scan. Data were acquired using 16 of these 25 Da precursor double window scans (creating 32 windows) that covered the diagonal scan line for doubly and triply charged precursors, with singly charged precursors able to be excluded by their position in the m/z-ion mobility plane. These precursor isolation windows were defined between 400 m/z and 1,200 m/z and 1/K0 of 0.7–1.3 V s cm^−2.
(§4) DirectDIA mode includes first extracting the DIA data into a collection of MS2 spectra which are searched using Spectronaut’s Pulsar search engine. The search results are then used to generate a spectral library which is then employed for the targeted analysis of the DIA data. MS/MS spectra were searched against a Swissprot human database (January 2021). Database search criteria largely followed the default settings for directDIA including: tryptic with two missed cleavages, fixed carbomidomethylation of cysteine, and variable oxidation of methionine and acetylation of protein N-termini and precursor Q-value (FDR) cut-off of 0.01. […]

CDK12 = molecular target: T1, CDK12 (Homo sapiens, UniProt Q16531+Q9NYV4); experiment: Label-free quantitative mass spectrometry in MDA-MB-231 cells, CDK12; type: cell-based
T1 construct: endogenous in cells; host or cells: MDA-MB-231
Protocol: as §1, §2, §3, §4

CDK13 = molecular target: T2, CDK13 (Homo sapiens, UniProt Q14004+Q16531); experiment: Label-free quantitative mass spectrometry in MDA-MB-231 cells, CDK13; type: cell-based
T2 construct: endogenous in cells; host or cells: MDA-MB-231
Protocol: as §1, §2, §3, §4

[1] = label-free quantitative MS, replicate values
[2] = normalised to DMSO = 1, replicate values

Chain of CDK12–cyclin K (Q9NYV4 713-1052): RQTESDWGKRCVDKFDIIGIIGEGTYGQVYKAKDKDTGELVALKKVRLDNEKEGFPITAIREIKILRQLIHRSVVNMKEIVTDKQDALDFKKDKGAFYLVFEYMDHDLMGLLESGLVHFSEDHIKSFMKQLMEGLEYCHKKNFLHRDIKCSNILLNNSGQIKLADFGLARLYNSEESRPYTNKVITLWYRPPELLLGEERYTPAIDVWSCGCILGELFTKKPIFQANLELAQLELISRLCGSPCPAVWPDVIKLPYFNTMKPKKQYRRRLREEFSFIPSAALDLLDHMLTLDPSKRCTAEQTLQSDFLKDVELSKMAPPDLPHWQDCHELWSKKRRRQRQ
Chain of CDK12–cyclin K (O75909 1-267 partner limits assumed): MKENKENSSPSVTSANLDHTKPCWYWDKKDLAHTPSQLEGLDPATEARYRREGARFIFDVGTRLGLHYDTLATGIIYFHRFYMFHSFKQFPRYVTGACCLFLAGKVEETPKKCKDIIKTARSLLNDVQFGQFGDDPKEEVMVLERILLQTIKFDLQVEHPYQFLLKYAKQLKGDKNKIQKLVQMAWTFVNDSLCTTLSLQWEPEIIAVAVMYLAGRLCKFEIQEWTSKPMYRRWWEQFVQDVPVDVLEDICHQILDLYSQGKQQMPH
T2 sequence (Q14004 whole entry): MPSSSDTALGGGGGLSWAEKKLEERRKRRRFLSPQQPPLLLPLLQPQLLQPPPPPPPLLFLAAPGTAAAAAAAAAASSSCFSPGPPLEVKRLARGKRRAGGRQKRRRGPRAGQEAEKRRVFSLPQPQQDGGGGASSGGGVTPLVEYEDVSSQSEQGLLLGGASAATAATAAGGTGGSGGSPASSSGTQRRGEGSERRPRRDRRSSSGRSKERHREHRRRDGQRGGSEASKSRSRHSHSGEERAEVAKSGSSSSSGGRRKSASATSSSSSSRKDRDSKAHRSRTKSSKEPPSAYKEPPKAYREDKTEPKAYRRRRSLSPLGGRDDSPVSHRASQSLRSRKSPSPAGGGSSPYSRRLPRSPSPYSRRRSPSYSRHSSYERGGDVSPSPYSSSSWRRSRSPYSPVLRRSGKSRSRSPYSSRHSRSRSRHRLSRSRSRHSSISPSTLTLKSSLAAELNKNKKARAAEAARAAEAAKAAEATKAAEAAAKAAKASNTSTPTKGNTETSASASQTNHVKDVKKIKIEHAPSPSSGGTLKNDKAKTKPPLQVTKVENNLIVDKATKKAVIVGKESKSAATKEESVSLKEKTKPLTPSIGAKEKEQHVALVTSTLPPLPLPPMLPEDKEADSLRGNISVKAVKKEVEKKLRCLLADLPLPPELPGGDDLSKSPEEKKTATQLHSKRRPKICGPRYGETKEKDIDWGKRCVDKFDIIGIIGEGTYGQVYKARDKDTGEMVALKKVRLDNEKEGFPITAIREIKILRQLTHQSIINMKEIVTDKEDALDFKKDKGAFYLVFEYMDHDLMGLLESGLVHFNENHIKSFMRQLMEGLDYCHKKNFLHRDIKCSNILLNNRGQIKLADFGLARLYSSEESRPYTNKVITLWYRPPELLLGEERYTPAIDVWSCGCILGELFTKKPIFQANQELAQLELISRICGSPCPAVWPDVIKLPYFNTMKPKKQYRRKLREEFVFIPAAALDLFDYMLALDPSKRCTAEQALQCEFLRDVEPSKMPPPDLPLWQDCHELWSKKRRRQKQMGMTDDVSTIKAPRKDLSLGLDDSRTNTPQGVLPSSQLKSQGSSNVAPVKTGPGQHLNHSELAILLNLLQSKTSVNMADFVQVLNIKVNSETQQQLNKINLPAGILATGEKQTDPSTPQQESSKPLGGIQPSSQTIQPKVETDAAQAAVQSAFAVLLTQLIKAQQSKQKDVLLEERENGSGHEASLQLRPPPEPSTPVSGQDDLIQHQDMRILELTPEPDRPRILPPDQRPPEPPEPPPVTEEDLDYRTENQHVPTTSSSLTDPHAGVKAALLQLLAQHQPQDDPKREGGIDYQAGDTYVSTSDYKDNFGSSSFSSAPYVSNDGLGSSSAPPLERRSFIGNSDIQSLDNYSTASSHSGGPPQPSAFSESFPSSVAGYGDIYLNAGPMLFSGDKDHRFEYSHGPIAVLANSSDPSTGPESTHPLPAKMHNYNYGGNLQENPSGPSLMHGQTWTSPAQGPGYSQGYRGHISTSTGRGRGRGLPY
T2 sequence (O75909 whole entry partner): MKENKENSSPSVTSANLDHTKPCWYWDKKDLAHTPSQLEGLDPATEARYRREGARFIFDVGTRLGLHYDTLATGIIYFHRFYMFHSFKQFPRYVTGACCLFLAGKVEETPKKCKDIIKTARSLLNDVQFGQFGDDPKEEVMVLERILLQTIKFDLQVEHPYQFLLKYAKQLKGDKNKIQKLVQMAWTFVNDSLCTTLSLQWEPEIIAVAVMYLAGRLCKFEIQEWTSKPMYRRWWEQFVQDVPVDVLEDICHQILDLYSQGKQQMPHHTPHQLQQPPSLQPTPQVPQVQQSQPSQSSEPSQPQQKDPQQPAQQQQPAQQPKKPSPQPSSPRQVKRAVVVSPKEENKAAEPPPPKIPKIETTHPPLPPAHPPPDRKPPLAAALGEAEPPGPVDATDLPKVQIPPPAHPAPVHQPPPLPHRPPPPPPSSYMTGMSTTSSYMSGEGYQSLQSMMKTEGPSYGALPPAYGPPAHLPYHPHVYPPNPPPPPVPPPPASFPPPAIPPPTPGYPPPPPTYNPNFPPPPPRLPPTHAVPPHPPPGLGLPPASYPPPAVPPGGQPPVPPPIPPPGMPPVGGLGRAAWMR
T2 sequence (Q16531 2-1140 limits assumed): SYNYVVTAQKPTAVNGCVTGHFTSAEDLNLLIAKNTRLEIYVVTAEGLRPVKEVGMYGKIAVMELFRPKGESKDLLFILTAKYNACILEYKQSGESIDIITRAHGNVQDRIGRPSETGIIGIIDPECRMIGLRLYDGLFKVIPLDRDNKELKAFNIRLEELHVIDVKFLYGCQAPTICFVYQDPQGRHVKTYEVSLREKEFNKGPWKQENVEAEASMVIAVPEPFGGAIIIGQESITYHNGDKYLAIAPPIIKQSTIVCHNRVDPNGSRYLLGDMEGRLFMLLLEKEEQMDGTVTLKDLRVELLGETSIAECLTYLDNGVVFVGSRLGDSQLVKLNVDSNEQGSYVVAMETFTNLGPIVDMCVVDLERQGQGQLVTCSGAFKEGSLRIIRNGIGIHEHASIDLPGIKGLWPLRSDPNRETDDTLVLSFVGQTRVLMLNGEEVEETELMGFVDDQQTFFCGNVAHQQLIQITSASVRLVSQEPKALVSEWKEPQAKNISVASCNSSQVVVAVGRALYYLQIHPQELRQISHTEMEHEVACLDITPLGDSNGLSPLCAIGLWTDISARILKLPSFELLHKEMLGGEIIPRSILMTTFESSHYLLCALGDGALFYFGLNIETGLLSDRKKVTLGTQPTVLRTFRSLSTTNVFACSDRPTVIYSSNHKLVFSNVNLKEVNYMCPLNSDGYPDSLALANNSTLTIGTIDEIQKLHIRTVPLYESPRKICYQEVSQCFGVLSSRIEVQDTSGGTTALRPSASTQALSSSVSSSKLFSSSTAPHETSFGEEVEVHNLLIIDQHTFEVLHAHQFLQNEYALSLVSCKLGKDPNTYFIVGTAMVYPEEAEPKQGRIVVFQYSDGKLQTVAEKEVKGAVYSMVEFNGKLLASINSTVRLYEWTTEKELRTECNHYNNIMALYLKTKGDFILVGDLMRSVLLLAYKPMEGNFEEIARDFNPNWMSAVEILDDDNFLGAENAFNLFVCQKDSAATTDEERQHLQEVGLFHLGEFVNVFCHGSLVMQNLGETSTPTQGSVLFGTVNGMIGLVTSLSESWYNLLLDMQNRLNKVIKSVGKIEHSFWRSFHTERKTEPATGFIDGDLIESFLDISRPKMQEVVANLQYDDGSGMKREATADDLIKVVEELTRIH

With CCC(CO)Nc1nc(NCc2ccc(-c3ccccn3)cc2)c2ncn(C(C)C)c2n1 (centres unmarked) [CR8, reference compound] the “viability assay signal (normalized)” value (HEK293T cells; 2 nM, + MLN4924) was 1.107 and 1.008, the “viability assay signal (normalized)” value (HEK293T cells; 2 nM, without MLN4924) was 1.041 and 1.037 and the “viability assay signal (normalized)” value (HEK293T cells; 4.69 nM, + MLN4924) was 1.279 and 1.055. The “viability assay signal (normalized)” value (HEK293T cells; 4.69 nM, without MLN4924) was 1.03 and 1.007, the “viability assay signal (normalized)” value (HEK293T cells; 11 nM, + MLN4924) was 1.009 and 1.091 and the “viability assay signal (normalized)” value (HEK293T cells; 11 nM, without MLN4924) was 1.0171 and 1.083. For the same molecule, the “viability assay signal (normalized)” value (HEK293T cells; 25.7 nM, + MLN4924) was 1.13 and 1.18, the “viability assay signal (normalized)” value (HEK293T cells; 25.7 nM, without MLN4924) was 0.9174 and 1.057 and the “viability assay signal (normalized)” value (HEK293T cells; 141 nM, + MLN4924) was 1.076 and 1.102. For the same molecule, the “viability assay signal (normalized)” value (HEK293T cells; 141 nM, without MLN4924) was 0.4857 and 0.5122, the “viability assay signal (normalized)” value (HEK293T cells; 331 nM, + MLN4924) was 0.8705 and 0.873 and the “viability assay signal (normalized)” value (HEK293T cells; 331 nM, without MLN4924) was 0.3951 and 0.3542. For the same molecule, the “viability assay signal (normalized)” value (HEK293T cells; 4270 nM, + MLN4924) was 0.4449 and 0.4383, the “viability assay signal (normalized)” value (HEK293T cells; 4270 nM, without MLN4924) was 0.4332 and 0.4197 and the “viability assay signal (normalized)” value (HEK293T cells; 10000 nM, + MLN4924) was 0.4134 and 0.5002. For the same molecule, the “viability assay signal (normalized)” value (HEK293T cells; 10000 nM, without MLN4924) was 0.424 and 0.4316, the EC50 (HEK293T cells; Supplementary Fig. 5, HEK293T, CellTiter Glo, 72h, pre-treatment with 100 nM MLN4924, read-out: Viability EC50, with MLN4924) was 519 nM and the EC50 (HEK293T cells; Supplementary Fig. 5, HEK293T, CellTiter Glo, 72h, read-out: Viability EC50, no MLN4924) was 78 nM. For the same molecule, the EC50 (HEK293T cells; Supplementary Table 2, HEK293T viability, 72 h, compound alone, read-out: Cellular assays EC50) was 159 nM, the Toxicity rescue (HEK293T cells; Supplementary Table 2, MLN4924-mediated cytotoxicity rescue, 10 µM used where n.d.) was 342% and the “Lanthascreen raw signal, sheet CDK12” value (CDK12–cyclin K; compound 0.038147 nM, series r37) was 0.01304 and 0.01325. For the same molecule, the “Lanthascreen raw signal, sheet CDK12” value (CDK12–cyclin K; compound 0.038147 nM, series r49) was 0.007695 and 0.007446, the “Lanthascreen raw signal, sheet CDK12” value (CDK12–cyclin K; compound 0.152588 nM, series r37) was 0.01428 and 0.01359 and the “Lanthascreen raw signal, sheet CDK12” value (CDK12–cyclin K; compound 0.152588 nM, series r49) was 0.009378 and 0.01005. For the same molecule, the “Lanthascreen raw signal, sheet CDK12” value (CDK12–cyclin K; compound 0.610352 nM, series r37) was 0.015 and 0.0141, the “Lanthascreen raw signal, sheet CDK12” value (CDK12–cyclin K; compound 0.610352 nM, series r49) was 0.009165 and 0.0112 and the “Lanthascreen raw signal, sheet CDK12” value (CDK12–cyclin K; compound 0.76 nM, series r25) was 0.01077 and 0.009668. The “Lanthascreen raw signal, sheet CDK12” value (CDK12–cyclin K; compound 1.02544 nM, series r1) was 0.009016 and 0.007993, the “Lanthascreen raw signal, sheet CDK12” value (CDK12–cyclin K; compound 3.15521 nM, series r1) was 0.009443 and 0.008694 and the “Lanthascreen raw signal, sheet CDK12” value (CDK12–cyclin K; compound 4.57247 nM, series r25) was 0.009656 and 0.009902. The “Lanthascreen raw signal, sheet CDK12” value (CDK12–cyclin K; compound 9.46563 nM, series r1) was 0.008963 and 0.008112, the “Lanthascreen raw signal, sheet CDK12” value (CDK12–cyclin K; compound 9.76563 nM, series r37) was 0.01368 and 0.01299 and the “Lanthascreen raw signal, sheet CDK12” value (CDK12–cyclin K; compound 9.76563 nM, series r49) was 0.009408 and 0.009212. For the same molecule, the “Lanthascreen raw signal, sheet CDK12” value (CDK12–cyclin K; compound 13.7174 nM, series r25) was 0.01017 and 0.01059, the “Lanthascreen raw signal, sheet CDK12” value (CDK12–cyclin K; compound 31.5521 nM, series r1) was 0.006752 and 0.007539 and the “Lanthascreen raw signal, sheet CDK12” value (CDK12–cyclin K; compound 39.0625 nM, series r37) was 0.01193 and 0.01223. The “Lanthascreen raw signal, sheet CDK12” value (CDK12–cyclin K; compound 39.0625 nM, series r49) was 0.009305 and 0.008784, the “Lanthascreen raw signal, sheet CDK12” value (CDK12–cyclin K; compound 41.1523 nM, series r25) was 0.009709 and 0.009531 and the “Lanthascreen raw signal, sheet CDK12” value (CDK12–cyclin K; compound 99.3891 nM, series r1) was 0.006201 and 0.006527. For the same molecule, the “Lanthascreen raw signal, sheet CDK12” value (CDK12–cyclin K; compound 123.457 nM, series r25) was 0.008131 and 0.007441, the “Lanthascreen raw signal, sheet CDK12” value (CDK12–cyclin K; compound 156.25 nM, series r37) was 0.00959 and 0.00993 and the “Lanthascreen raw signal, sheet CDK12” value (CDK12–cyclin K; compound 156.25 nM, series r49) was 0.007819 and 0.007288. For the same molecule, the “Lanthascreen raw signal, sheet CDK12” value (CDK12–cyclin K; compound 315.521 nM, series r1) was 0.007121 and 0.006383, the “Lanthascreen raw signal, sheet CDK12” value (CDK12–cyclin K; compound 370.37 nM, series r25) was 0.007201 and 0.007104 and the “Lanthascreen raw signal, sheet CDK12” value (CDK12–cyclin K; compound 625 nM, series r37) was 0.007458 and 0.007383. The “Lanthascreen raw signal, sheet CDK12” value (CDK12–cyclin K; compound 625 nM, series r49) was 0.006302 and 0.006427, the “Lanthascreen raw signal, sheet CDK12” value (CDK12–cyclin K; compound 2500 nM, series r37) was 0.006338 and 0.006017 and the “Lanthascreen raw signal, sheet CDK12” value (CDK12–cyclin K; compound 2500 nM, series r49) was 0.006233 and 0.005662. The “Lanthascreen raw signal, sheet CDK12” value (CDK12–cyclin K; compound 3155.21 nM, series r1) was 0.005736 and 0.005607, the “Lanthascreen raw signal, sheet CDK12” value (CDK12–cyclin K; compound 3333.33 nM, series r25) was 0.00631 and 0.006815 and the “Lanthascreen raw signal, sheet CDK12” value (CDK12–cyclin K; compound 10000 nM, series r25) was 0.004829 and 0.005941. For the same molecule, the “Lanthascreen raw signal, sheet CDK12” value (CDK12–cyclin K; compound 10000 nM, series r37) was 0.006588 and 0.005825, the “Lanthascreen raw signal, sheet CDK12” value (CDK12–cyclin K; compound 10000 nM, series r49) was 0.006042 and 0.005923 and the “Lanthascreen raw signal, sheet CDK12” value (CDK12–cyclin K; compound 10002 nM, series r1) was 0.006385 and 0.006398. For the same molecule, the “cyclin K abundance (label-free MS)” value (cyclin K; individual replicates, sheet EDF7) was 122.337 and 71.6906, the “cyclin K abundance (label-free MS)” value (cyclin K; [1]) was 122.337 and 71.6906 and the “CCNK peptide count (DMSO-normalised)” value (cyclin K; [2]) was 0.06684 and 0.03988. For the same molecule, the “average CCNK peptide count” value (cyclin K; sheet EDF7) was 97.0136, the CDK12 peptide count (CDK12; [1]) was 540.299 and 612.59 and the “CDK12 peptide count (DMSO-normalised)” value (CDK12; [2]) was 0.6003 and 0.6327. For the same molecule, the CDK13 peptide count (CDK13; [1]) was 225.708 and 137.684 and the “CDK13 peptide count (DMSO-normalised)” value (CDK13; [2]) was 0.3358 and 0.2116.
